Converted amounts (≈) assume the structure as drawn.
Assays:
Interstitial collagenase = Interstitial collagenase (Homo sapiens, UniProt P03956); assay: Inhibition of human interstitial recombinant N-terminal MMP1 expressed in Escherichia coli BL21(DE3) using Mca-Pro-Leu-Gly-Leu-Dpa-Ala-Arg-NH2 as substrate after 20 to 30 mins by spectrofluorimetric analysis
[1] = molecular target: 72 kDa type IV collagenase (Homo sapiens, UniProt P08253); assay: Inhibition of MMP2 (unknown origin) expressed in Escherichia coli BL21(DE3) using Mca-Pro-Leu-Gly-Leu-Dpa-Ala-Arg-NH2 as substrate after 20 to 30 mins by spectrofluorimetric analysis
Collagenase 3 = Collagenase 3 (Homo sapiens, UniProt P45452); assay: Inhibition of MMP13 (unknown origin) expressed in Escherichia coli BL21(DE3) using Mca-Pro-Leu-Gly-Leu-Dpa-Ala-Arg-NH2 as substrate after 20 to 30 mins by spectrofluorimetric analysis
[2] = molecular target: Matrix metalloproteinase-9 (Homo sapiens, UniProt P14780); assay: Inhibition of MMP9 (unknown origin) expressed in Escherichia coli BL21(DE3) using Mca-Pro-Leu-Gly-Leu-Dpa-Ala-Arg-NH2 as substrate after 20 to 30 mins by spectrofluorimetric analysis
Matrilysin = molecular target: T1, Matrilysin (Homo sapiens, UniProt P09237); assay: Inhibition of MMP7 (unknown origin) expressed in Escherichia coli BL21(DE3) using Mca-Pro-Leu-Gly-Leu-Dpa-Ala-Arg-NH2 as substrate after 20 to 30 mins by spectrofluorimetric analysis
T1 sequence (P09237 whole entry): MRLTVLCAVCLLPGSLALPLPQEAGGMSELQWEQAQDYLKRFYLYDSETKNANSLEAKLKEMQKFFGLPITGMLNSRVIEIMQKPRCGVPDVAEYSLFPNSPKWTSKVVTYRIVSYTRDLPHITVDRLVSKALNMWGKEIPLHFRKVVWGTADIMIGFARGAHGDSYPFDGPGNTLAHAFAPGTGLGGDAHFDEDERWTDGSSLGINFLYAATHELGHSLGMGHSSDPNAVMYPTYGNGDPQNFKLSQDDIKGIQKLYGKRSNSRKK

[3] = Aqueous solubility of the compound at physiological pH; assay type: physicochemical; details: buffer

Sequence of 72 kDa type IV collagenase (P08253 whole entry): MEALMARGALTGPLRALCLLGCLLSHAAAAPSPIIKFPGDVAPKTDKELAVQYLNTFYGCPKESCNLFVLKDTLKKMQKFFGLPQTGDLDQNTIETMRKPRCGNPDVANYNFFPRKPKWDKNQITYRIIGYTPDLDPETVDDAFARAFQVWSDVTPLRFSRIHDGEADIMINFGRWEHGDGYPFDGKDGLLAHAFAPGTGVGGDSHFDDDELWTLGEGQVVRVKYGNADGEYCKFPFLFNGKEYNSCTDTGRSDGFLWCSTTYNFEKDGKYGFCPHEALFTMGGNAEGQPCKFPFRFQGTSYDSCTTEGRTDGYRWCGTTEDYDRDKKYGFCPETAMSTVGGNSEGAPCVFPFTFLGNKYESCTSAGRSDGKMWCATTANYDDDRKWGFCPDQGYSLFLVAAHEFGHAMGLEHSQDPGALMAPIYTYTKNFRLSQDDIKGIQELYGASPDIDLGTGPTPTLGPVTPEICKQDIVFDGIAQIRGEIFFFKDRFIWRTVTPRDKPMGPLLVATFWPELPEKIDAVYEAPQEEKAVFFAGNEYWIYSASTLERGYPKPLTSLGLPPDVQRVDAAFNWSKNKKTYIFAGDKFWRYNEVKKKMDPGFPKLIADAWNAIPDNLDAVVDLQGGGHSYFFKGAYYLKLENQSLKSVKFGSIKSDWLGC
Sequence of Interstitial collagenase (P03956 whole entry): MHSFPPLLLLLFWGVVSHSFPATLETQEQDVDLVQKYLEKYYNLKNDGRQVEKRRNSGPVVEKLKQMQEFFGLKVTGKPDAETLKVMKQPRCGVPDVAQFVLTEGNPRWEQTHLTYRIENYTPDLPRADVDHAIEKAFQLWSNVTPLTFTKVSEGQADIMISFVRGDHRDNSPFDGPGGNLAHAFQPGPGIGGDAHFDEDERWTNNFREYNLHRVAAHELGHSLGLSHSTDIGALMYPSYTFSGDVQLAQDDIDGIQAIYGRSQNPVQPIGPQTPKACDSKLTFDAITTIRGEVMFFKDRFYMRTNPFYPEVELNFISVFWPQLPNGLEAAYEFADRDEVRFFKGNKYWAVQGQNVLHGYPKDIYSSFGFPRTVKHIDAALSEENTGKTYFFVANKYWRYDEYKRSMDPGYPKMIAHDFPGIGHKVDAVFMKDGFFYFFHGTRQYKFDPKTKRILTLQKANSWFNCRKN
Sequence of Matrix metalloproteinase-9 (P14780 whole entry): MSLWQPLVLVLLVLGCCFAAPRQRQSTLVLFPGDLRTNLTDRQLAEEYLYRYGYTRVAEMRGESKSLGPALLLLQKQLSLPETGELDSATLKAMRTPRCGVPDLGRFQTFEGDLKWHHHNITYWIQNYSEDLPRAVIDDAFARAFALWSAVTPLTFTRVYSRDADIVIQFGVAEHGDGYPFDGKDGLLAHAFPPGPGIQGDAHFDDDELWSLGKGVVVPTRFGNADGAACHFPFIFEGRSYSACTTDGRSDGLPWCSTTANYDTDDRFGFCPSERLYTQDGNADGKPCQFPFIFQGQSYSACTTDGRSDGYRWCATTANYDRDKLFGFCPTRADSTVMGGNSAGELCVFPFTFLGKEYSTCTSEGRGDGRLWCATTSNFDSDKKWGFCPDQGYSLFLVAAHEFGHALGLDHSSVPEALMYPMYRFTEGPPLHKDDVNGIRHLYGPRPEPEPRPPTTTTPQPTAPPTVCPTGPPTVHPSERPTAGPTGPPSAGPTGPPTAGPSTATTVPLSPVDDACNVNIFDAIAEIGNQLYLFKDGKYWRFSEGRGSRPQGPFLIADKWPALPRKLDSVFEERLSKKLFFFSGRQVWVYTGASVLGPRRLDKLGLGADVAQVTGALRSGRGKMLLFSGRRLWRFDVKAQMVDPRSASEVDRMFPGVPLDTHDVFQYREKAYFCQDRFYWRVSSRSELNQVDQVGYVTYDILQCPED

Row | SMILES | IC50 (Interstitial collagenase) [nM] | IC50 [1] [nM] | IC50 (Collagenase 3) [nM] | IC50 [2] [nM] | IC50 (Matrilysin) [nM] | solubility [3] [µg/mL]
1 | COc1ccc(S(=O)(=O)N2CCSC(C)(C)C2C(=O)NO)cc1 (stereo unspecified) | 0.4 | 1.4 | 1 | 0.9 | 23 | –
2 | COc1ccc(S(=O)(=O)N2CCCSC(C)(C)[C@@H]2C(=O)NO)cc1 | – | – | – | – | – | 800 (≈ 2140 µM)

Source: ChEMBL document CHEMBL4033775, “Natural-Products-Inspired Use of the gem-Dimethyl Group in Medicinal Chemistry” (J Med Chem, 2018)
